“Also recorded” adds a separate entry of the source. Blank lines part the entries; values can stand above or below the compound they belong to. Non-standard residues stand in square brackets, D forms with d. Residues, ends and D or L forms follow the SMILES beside them. No end group written: not given here. pS = N[C@@H](COP(=O)(O)O)C(=O)O
How the values were obtained:
[1] = Chromatography of PpSer on TiO2 anatase column (bicarbonate and NaOH elution gradients); type: binding
Source text: Chromatography on TiO2 Surfaces: as described in Golan Gertler, Gideon Fleminger and Hanna Rapaport. Langmuir 2010, 26(9), 6457-6463, and further illustrated in FIG. 3. Stainless steel (4.6_50 mm) column was packed with TiO2 anatase (Sachtopore NP 10μ/100 A°, particle size/pore size respectively) suspended in methanol. The packed columns were washed consecutively with water and 0.1 M NaOH to desorb surface contaminants. The columns were then pre-equilibrated with the running buffer. Lyophilized peptides were dissolved in the running buffer (0.2 mg/mL) and centrifuged at 5000 g for 5 min prior to injection into the column to remove possible aggregates. The supernatants (100 μL) were injected on to the TiO2 column at a flow rate of 0.02 mL/min to attain 40 min retention time for adsorption. After 65 minutes, the flow rate was increased to 0.5 mL/min. Ten millimolar Tris and phosphate buffer solutions, pH 7.4, were used as adsorption (running) media. In addition, these buffers complemented by 150 mM NaCl (TBS, PBS, respectively) were also examined. Elution was carried out by gradients of the following solutions applied consecutively to the column: 1 M NaCl, 80% acetonitrile, 200 mM sodium phosphate, and 0.1 M NaOH, monitored at 215-280 nm. The chromatograms were obtained at room temperature using 0.2 μm filtered (Millipore, Badford, Mass.) solutions.
The peptide dissolved in two different running buffer, Tris buffer saline (TBS) and sodium bicarbonate saline (BCS). The affinity of functional groups to TiO2 from previous works was known to be PO4^−3>HCO3^−>COO^−. (The diagonal line in the chromatography is the elution gradient: 0-200 mM sodium bicarbonate & 0-0.1M NaOH).
Peptides that bind to TiO2 only through Glutamic acid functional groups will elute in BC gradient, however peptides that bind to TiO2 through pSer functional groups will elute in the NaOH gradient.
The idea behind using BCS as running buffer is to block the surface with carbonate ions before the peptide injection.

[2] = Adsorption of sodium phenyl phosphate dibasic to TiO2 microparticles (solution depletion); type: binding; design: Difference in concentration of the solution between the initial and the final one: unit: mg/ml; settings: TiO2 microparticles 1.8 mg/ml, TBS
Method: Several solutions of sodium phenyl phosphate dibasic with different concentrations, dissolved in the same TBS, were allowed to adsorb to TiO2 microparticles (1.8 mg/ml in 1 ml). Table 6, herein below lists the initial concentrations and the difference in concentration of the solution between the initial and the one following adsorption. According to Table 6, the phenyl phosphate adsorbs only at concentrations lower than 0.25 mg/ml probably because at higher concentrations the compound undergoes some aggregation and stays only in the solution. This adsorption behavior is unusual and therefore no binding affinity constants were determined.

[3] = Calcium-phosphate adsorption on peptide coated TiO2 surfaces (XPS); settings: Ca—P solution 24 h at 37° C.; FIG. 17B
Method: Surfaces were incubated in TBS solution for 45 min in room temperature, and then the surfaces were incubated in 0.4 mg ml^−1 peptide-TBS 10 mM solution for 1 hr at room temperature and were dried with nitrogen. Peptide coating were analyzed by XPS.
The ability to absorb calcium-phosphate (Ca—P) ions by the different peptide coatings were measured using Ca—P solution. The solution was prepared at physiological pH and contained K2HPO4 (1.0 mM), CaCl2.2H2O (2.5 mM), dissolved consecutively in deionized water at 37° C. and buffered at pH ˜7.4 using 50 mM Trizma™ base and an appropriate volume of 1M HCl. Coated surfaces were incubated in Ca—P solution at 37° C. for 24 h.
However it contradicts the β-cpSer adsorption isotherm result. This phenomenon can be explained by the different surface topography and surface area between TiO2 particles and TiO2 surface, adsorption surface area at adsorption isotherm experiment is 1.123 m^2 and the surface area is 10^−4 m^2. At small surface areas, the difference between peptides' adsorption cannot be observed. In order to examine the influence of the Glu tail on calcified mineralization process, titanium oxide surfaces were coated with pSer peptide or with the control peptides (cpSer or β-cpSer) and incubated for 24 hours inside calcium-phosphate solution (see Materials and Methods). Atomic concentrations of calcium and phosphorus were compared with titanium as measured by XPS.

[4] = Adsorption isotherm onto TiO2 particles, Sips equation fitting; type: binding; settings: 10 mM TBS pH 7.4, 1 h room temperature; Sips fit
Method: The adsorption of all three peptides to TiO2 particles were measured with peptides solution in a range of concentrations from 0.002 to 0.524 mM in 10 mM TBS solution. TiO2 particles were suspended in TBS 10 mM, pH 7.4, to a final concentration of 1.8 mg/ml. To each test tube containing 0.5 ml of peptide at different concentrations, 0.5 ml of TiO2 particles solution was added. The samples were continuously mixed with a tube rotator for 1 h at room temperature. To precipitate the TiO2 particles, the test tubes were centrifuged at 5000 rpm for 3 minutes and the absorption of the supernatant was measured at 280 nm using a microplate-reader (BioTek instruments). Peptide concentration was determined based on calibration curve of each peptide prepared in TBS solution. In order to describe the adsorption of molecules on TiO2 particles surface the sips equation, also known as the Langmuir-Freundlich equation (1), was used:
[formula] where S is the amount of adsorbed molecules (mol m^−2), Smax is the maximum amount of molecules adsorbed (mol m^−2), C is their concentration is solution at equilibrium (mM), k is the association coefficient (M^−1) and α is the constant representing this distribution.^30
Peptide adsorption and desorption conditions were characterized by HPLC. A column was packed with micrometer size particles of the TiO2 anatase phase (see Materials and Methods). […]

[5] = HPLC chromatography on TiO2 anatase microparticle column (Example 2); type: binding; settings: 0.4 mg/ml in TBS (10 mM, pH=7.4) loading buffer
Method: A stainless steel (4.6×50 mm) column was packed with TiO2 anatase (Sachtopore NP 10μ/100 Å, particle size/pore size respectively) suspended in methanol. The packed column was washed consecutively with water and 0.1 M NaOH to desorb surface contaminants. The column was then pre-equilibrated with the loading/running buffer. The chromatographic process was performed on a HPLC system (Algient Technologies, 1260 Infinity, Germany). Peptides dissolved in the loading/running buffer (0.4 mg/ml) were sonicated for 10 minutes and centrifuged at […] for 8 minutes and were injected to the TiO2 column at a flow rate of 0.02 ml/min to attain ˜40 minutes retention time for adsorption. 10 mM tris buffered saline pH 7.4 (TBS) was used as adsorption/running media. After 65 minutes, the flow rate was increased to 0.5 ml/min. Elution was carried out by gradients of 200 mM sodium bicarbonate solution pH 7.4 and 0.1 M NaOH. Elution was monitored at 280 nm. All solutions were filtered using 0.2 μm filters (Millipore, Badford, Mass.).
Peptide adsorption and desorption conditions were characterized by HPLC. A column was packed with micrometer size particles of the TiO2 anatase phase (see Materials and Methods). Tris buffer saline (TBS), pH 7.4, served as a loading buffer. […]

[6] = BCS (sodium bicarbonate saline) running buffer, FIG. 7B

fraction of the peptide able to displace the carbonate ions and bind TiO2 through pSer [1, 6]: ⅔ and two-thirds
fraction of the peptide that can't displace the carbonate ions, bonded to them, eluted at BC gradient [1, 6]: ⅓ and about one third
Compound: O=C(O)CC[C@H](NC(=O)[C@H](CCC(=O)O)NC(=O)[C@H](CCC(=O)O)NC(=O)[C@H](CCC(=O)O)NC(=O)[C@H](CCC(=O)O)NC(=O)CNC(=O)CNC(=O)CNC(=O)[C@H](Cc1c[nH]c2ccccc12)NC(=O)[C@H](COP(=O)(O)O)NC(=O)[C@H](Cc1c[nH]c2ccccc12)NC(=O)[C@H](COP(=O)(O)O)NC(=O)[C@@H]1CCCN1)C(=O)O [PpSer, Pro-pSer-Trp-pSer-Trp-(Gly)3-(Glu)5] (H-P[pS]W[pS]WGGGEEEEE-OH; N-terminus and C-terminus assumed)
mode of binding to TiO2 on the column ([1]; TBS running buffer, 10 mM pH 7.4, FIG. 7A): bonded to TiO2 through pSer functional groups

Compound: O=P([O-])([O-])Oc1ccccc1.[Na+].[Na+] [sodium phenyl phosphate dibasic]
Difference in concentration of the solution between the initial and the final one ([2]; 0.0625 mg/ml in adsorbing solution): 0.02365
Difference in concentration of the solution between the initial and the final one ([2]; 0.125 mg/ml in adsorbing solution): 0.02083
Difference in concentration of the solution between the initial and the final one ([2]; 0.25 mg/ml in adsorbing solution): 0.008776
Difference in concentration of the solution between the initial and the final one ([2]; 0.5 mg/ml in adsorbing solution): ~0
Difference in concentration of the solution between the initial and the final one ([2]; 1 mg/ml in adsorbing solution): ~0
concentrations at which the compound adsorbs to TiO2 microparticles [2]: lower than 0.25 mg/ml

Compound: Pro-Ser(phos)-Phe-Ser(phos)-Trp-(Gly)3-(Glu)5 (P[pS]F[pS]WGGGEEEEE) [pSer]
calcium and phosphate adsorbed by coated surfaces (atomic ratio of P and Ca to Ti) [3]: significantly higher calcium and phosphate concentration; also recorded: adsorbs more Ca and P ions

Compound: Pro-Ser(phos)-Ser(phos)-Phe-Trp-(Gly)3 (P[pS][pS]FWGGG) [β-cpSer]
Smax, maximum amount of molecules adsorbed to TiO2 surface [4]: 7.48E−7 mol · m^−2
calcium and phosphate adsorbed by coated surfaces (atomic ratio of P and Ca to Ti) [3]: approximately the same calcium and phosphate concentrations

Compound: Pro-pSer-Phe-pSer-Trp-(Gly)3 (P[pS]F[pS]WGGG) [cpSer, control peptide lacking the stretch of the Glu residues]
calcium and phosphate adsorbed by coated surfaces (atomic ratio of P and Ca to Ti) [3]: approximately the same calcium and phosphate concentrations

adsorption to the oxide [5]: does not adsorb
Compound: Trp-Glu

Reference: patent publication US10213527B2, “Functionalized titanium binding peptides and implants coated with same” (Ben-Gurion University of the Negev Research and Development …, priority 2012, dated 2019)
